Assay results: PubChem BioAssay AID493002 (Sanford-Burnham Center for Chemical Genomics, 2010)

Test system: S. cerevisiae tim23-1 mutant growth, luminescence
Assay: tim23-1 mutant yeast growth inhibitors, dose response, luminescence, uHTS hits (AID 493002);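 also: yeast grown roughly 22 hours at 25 °C before the luminescence read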

| SMILES | IC50 [µM] |
| --- | --- |
| CN1C(=O)C(=Cc2ccccc2OS(=O)(=O)c2ccccc2)C(=O)N(C)C1=O | 6.59 |
| COc1ccc(C(=O)COC(=O)c2cncc(Br)c2)cc1 | 10.1 |
| Cc1csc2nc(O)c(C(=O)NCCCc3ccccc3)c(=O)n12 | 7.87 |
| COc1ccc(/C=C(\C#N)c2nc3ccccc3[nH]2)cc1O | 14.8 |
| C[C@@]12C(=O)Nc3ccc(Br)cc3C(=O)N1[C@H]1c3ccccc3OC[C@@H]1[C@@H]2c1ccccc1 | 2.66 |
| O=C(Nc1ccc(Nc2ccccc2)cc1)c1ccccc1F | 21.9 |
| O=C(Nc1ccc(Nc2ccccc2)cc1)c1ccc(Cl)c([N+](=O)[O-])c1 | 6.25 |
| CC1(C)c2cc(Cl)ccc2-n2c1cc(O)c(-c1ccccc1)c2=O | 11.9 |
| Oc1ccc(Cl)cc1CNc1cnc2ccccc2c1 | 15.3 |
| Nc1nc2c(s1)CCc1c-2cnn1-c1ccccc1 | 12.4 |
| O=C(Nc1nccs1)c1ccc(Cl)s1 | 7.48 |
| O=C(Nc1ccc2oc(-c3ccccc3)nc2c1)c1cccs1 | 0.39 |
| C=CCn1c(SCc2cc(=O)n3ccsc3n2)nc2cc(Cl)ccc2c1=O | 6.15 |
| N#C/C(=C\c1ccc(O)cc1)c1nc2ccccc2o1 | 6.42 |
| Cc1ccn2cc(C(=O)Nc3ccc4c(c3)OCCO4)nc2c1 | 7.9 |
| CSc1nnc(C)c(/C=C/NOCc2ccc(Cl)cc2)n1 | 6.13 |
| O=C(CSc1cccc[n+]1[O-])CSc1cccc[n+]1[O-] | 5.83 |
| CCn1c(N2CCN(S(=O)(=O)c3ccc(OC)cc3)CC2)nc2ccccc21 | 8.88 |
| Cc1nc2ccccc2n1/N=C/c1ccc([N+](=O)[O-])s1 | 1.58 |
| O=C(Oc1cccc2c(O)cccc12)c1ccccc1 | 8.69 |
| C=CCN=c1scc(-c2ccco2)n1/N=C/c1ccc(O)c(O)c1O | 16.1 |
| CC1c2[nH]c3ccccc3c2CCN1C(=O)Nc1ccccc1 (centres undefined) | 12.1 |
| Cc1nc2nc(-c3cccs3)[nH]c2cc1Br | 7.8 |
| O=C(N/N=C/C(Cl)=C\c1ccccc1)c1cccs1 | 4.85 |
| COc1cc(/C=C/C(=O)OCC(=O)c2ccc(OC(F)F)cc2)ccc1O | 14.6 |

| SMILES | IC50 [µM] |
| --- | --- |
| CCOc1ccc(N=C(C)C2=C(O)c3ccccc3C2=O)cc1 | 11.2 |
| OCCOCCNc1ncnc2c1c(-c1ccccc1)cn2-c1ccccc1 | 10.7 |
| Cc1cc(C)nc(SCC(=O)c2cc3ccccc3oc2=O)n1 | 9.91 |
| O=c1oc(-c2ccccc2F)nc2c1cnn2-c1ccccc1 | 7.71 |
| CC(C)n1cc(NC(=O)c2cc(-c3ccccc3)on2)cn1 | 7.69 |
| O=C(Nc1ccc(-c2ccc(N3CCCCC3)nn2)cc1)c1ccco1 | 10 |
| CC[C@@]1(c2ccccc2OC)ON(c2ccccc2C(F)(F)F)C1=O | 5.91 |
| Nc1c(C(=O)Nc2ccc3c(c2)OCCO3)nnn1Cc1ccccc1Cl | 12.4 |
| COc1ccc(C(C[N+](=O)[O-])c2c(C)[nH]n(-c3ccccc3)c2=O)cc1 (centres undefined) | 7.55 |
| CCCCC(=O)NC(c1ccc(Cl)cc1)c1ccc2cccnc2c1O (centres undefined) | 9.68 |
| O=C(Nc1oc2ccc(Cl)cc2c(=O)c1-c1ccc(F)cc1)c1ccco1 | 17.1 |
| c1ccc(-c2cc3cc4c(cc3cn2)OCO4)cc1 | 17 |
| CCOC(=O)c1ccc(NC(=O)CSc2nc(=O)n3cccc(C)c3n2)cc1 | 13 |
| Cc1nc2scc(C)n2c(=O)c1S(=O)(=O)Nc1ccc(N2CCOCC2)cc1 | 6.67 |
| C/C(=N\Nc1nc2ccccc2s1)c1cccs1 | 9.27 |
| CCC(C)NC(=O)c1c(N)n(CCCOC)c2nc3ccccc3nc12 (centres undefined) | 14.1 |
| CC(C)(C)C(=O)c1sc(Nc2ccccc2)nc1N | 12 |
| CC(C)n1ncc2c(C(=O)NCC(=O)Nc3ccccc3Br)cc(C3CC3)nc21 | 16 |
| COc1ccc2c(c1)sc1nc(-c3ccccc3)cn12 | 6.68 |
| O=C(Nc1ccc(C(=O)N2CCCc3ccccc32)cc1)c1cccs1 | 7.75 |
| CCOC(=O)c1cccc(NC(=O)c2cc3ccccc3o2)c1 | 14.3 |
| O=C(Nc1cn(-c2ccccc2)nc1-c1cccs1)c1ccco1 | 29 |
| Oc1ccc(-c2nccc(-c3cccs3)n2)cc1 | 20.2 |
| COc1ccc(C(=O)Nc2nc3ccccc3s2)c(OC)c1 | 5.92 |
| CC(C)CN(C(=O)c1ccc2c(c1)OCCO2)c1c(N)n(Cc2ccccc2)c(=O)[nH]c1=O | 14.2 |

| SMILES | IC50 [µM] |
| --- | --- |
| Cc1nc(Nc2ccccc2)sc1C(=O)Nc1ccccc1 | 14.6 |
| Cc1ccccc1C(=O)Oc1cccc2c(O)cccc12 | 8.53 |
| O=C(COc1ccccc1)N/N=C/c1ccc([N+](=O)[O-])o1 | 6.56 |
| CCOC(=O)c1c(-c2ccccc2)oc2ccc(O)cc12 | 7.92 |
| Cc1ccc(CNc2oc(-c3cccs3)nc2C#N)cc1 | 25.6 |
| O=C1c2ccccc2-c2n[nH]c3cccc1c23 | 6.31 |
| COc1cccc(NC(=O)c2ccccc2)c1 | 11.3 |
| COc1ccc(CCN(/C=C2\Sc3ccccc3C2=O)C(C)=O)cc1OC | 14 |
| COc1cc2c3c(c1)C(C)=CC(C)(C)N3C(=O)C2=O | 8.81 |
| O=C(Nc1ccc(OC(F)(F)F)cc1)N1CCN(c2ccnc3cc(Cl)ccc23)CC1 | 10.5 |
| Cc1cnc(NC(=O)c2cc3c(s2)CCCC3)s1 | 14.5 |
| CC(C)Cn1cnc2c(c(-c3ccccc3)c(-c3ccccc3)n2Cc2ccco2)c1=N | 9.48 |
| Nc1ccc(N=Nc2ccccc2O)c(N)c1 | 15.3 |
| N#C/C(=C\c1ccc(OCc2ccccc2)cc1)C(N)=O | 11.7 |
| O=C(c1cc(-c2cccc(O)c2)on1)N1CCc2ccccc2C1 | 16 |
| COc1ccc(-c2nc3ccccc3[nH]2)cc1 | 18 |
| Cc1ccc(/C=N/NC(=O)c2csc3c2CCCC3)cc1 | 15.1 |
| COc1ccc(OCC(=O)Nc2ccc3c(c2)CCC3)cc1 | 15.6 |
| CCC(=O)OCC(=O)[C@@]1(OC(=O)CC)[C@@H](C)C[C@H]2[C@@H]3CCC4=CC(=O)C=C[C@]4(C)[C@@]3(Cl)[C@@H](O)C[C@@]21C | 14.9 |
| COn1c(=O)c(-c2cccs2)[n+]([O-])c2ccccc21 | 3.96 |
| Cn1c(/C(C#N)=C/c2ccncc2)nc2ccccc21 | 16.3 |
| Cc1ccc2nc(NC(=O)Cn3nc(C)c([N+](=O)[O-])c3C)sc2c1 | 6.13 |
| O=C(N/N=C/c1cc(Br)cc(Br)c1O)c1cccc(N2CCCC2=O)c1 | 6.37 |
| CC1(C)CC(n2c(NCCO)nc3c(c2=O)C2(CCCC2)Cc2ccccc2-3)CCO1 (centres undefined) | 8.62 |
| Brc1cccc(-c2n[nH]c(-c3ccccc3)n2)c1 | 11.5 |

| SMILES | IC50 [µM] |
| --- | --- |
| CCCc1nc2c(c(=O)c3ccccc3n2C)c(=O)n1C1CCCCCC1 | 9.44 |
| O=C(Nc1ccc(-c2cn3ccccc3n2)cc1)c1ccco1 | 6.01 |
| Cc1ccc(-c2nc(CNC(=O)c3cc(C)on3)cs2)cc1 | 15 |
| Nc1ccc(C(=O)Nc2nc3ccccc3s2)cc1 | 10.4 |
| Cc1ccc(Nc2ccc([N+](=O)[O-])nc2[N+](=O)[O-])cc1 | 44.3 |
| O=C(Oc1ccc(=O)n(-c2ccccc2)n1)c1ccc(Cl)cc1 | 11.8 |
| O=C(c1cc(-c2ccc(O)cc2)on1)N1CCCc2ccccc21 | 12.9 |
| CCN1C(=O)/C(=C2\SC(N3CCCCC3)=NC2=O)c2ccccc21 | 17.8 |
| O=C(N/N=C/c1ccc([N+](=O)[O-])s1)c1ccncc1 | 4.88 |
| Cc1ccc(-c2nc3n(n2)Cc2ccccc2-3)cc1 | 15.4 |
| Oc1ccccc1C1NN=C(c2ccccc2)S1 (centres undefined) | 18.3 |
| CCOC(=O)NNc1ccc2nonc2c1[N+](=O)[O-] | 6.6 |
| CCCCS/C(N)=N/N=C/c1ccccc1O | 18.2 |
| O=C(NCCCc1ccccc1)c1c(O)nc2sccn2c1=O | 4.63 |
| Cc1ccc2nc(N3C(=O)CNC3=S)sc2c1 | 3.73 |
| c1ccc(Nc2nc(-c3ccccc3)nc3ccccc23)cc1 | 5.08 |
| NC(=S)N/N=C/c1coc2ccc(Br)cc2c1=O | 4.4 |
| O=C(Nc1ccc(F)c([N+](=O)[O-])c1)c1cccs1 | 15.3 |
| Cc1ccc(-c2nnc(N3CCC(C)CC3)c3ccccc23)cc1 | 13.7 |
| c1ccc(-c2ncc(-c3ccn[nH]3)s2)cc1 | 5.97 |
| Cc1nc2scc(C)n2c(=O)c1S(=O)(=O)Nc1ccc(OC(F)(F)F)cc1 | 6.96 |
| Brc1ccc(-n2cnc(-c3ccccc3)c2)cc1 | 12.5 |
| Cc1nc2ccc(NC(=O)c3cccs3)cc2c(=O)n1Cc1ccc(Cl)cc1 | 12 |
| Cc1ccc(/C=N/NC(=O)c2ccc3c(c2)OCCO3)s1 | 34.6 |
| NC(=O)c1c(NC(=O)c2ccccc2F)sc2c1CCCC2 | 38.3 |

| SMILES | IC50 [µM] |
| --- | --- |
| O=C(Nc1cccc(Br)c1)C1CCCC1 | 7.64 |
| CC(C)OC(=O)c1cccnc1SCc1cc(=O)n2ccccc2n1 | 9.68 |
| Cc1ccc(Nc2nc(Cl)nc(NC(C)(C)C)n2)cc1 | 16 |
| Oc1ccc(/C=N/Nc2cccc(Cl)n2)c(O)c1 | 10.6 |
| O=[N+]([O-])c1ccccc1S(=O)(=O)Nc1cccc2cccnc12 | 7.7 |
| O=C(/C(=C/O)N=Nc1ccccc1)c1ccco1 | 10.7 |
| Cc1ccc(S(=O)(=O)n2ccc(OC(=O)c3cccs3)n2)cc1 | 8.39 |
| CCN(CC)S(=O)(=O)c1ccc(C(=O)OCn2nnc3ccccc3c2=O)cc1 | 9.32 |
| Cc1cc(C(=O)COC(=O)c2ccc([N+](=O)[O-])o2)c(C)n1CC1CCCO1 (centres undefined) | 10.1 |
| Cc1ccc(NC(=O)c2ccc3c(c2)OCCO3)cc1C | 13 |
| Cc1ccc2occ(C(=O)c3ccco3)c(=O)c2c1 | 9.16 |
| CC(C)(C)c1csc(NC(=O)c2ccc(Br)o2)n1 | 9.04 |
| O=c1oc(-c2ccc(Br)o2)nc2ccccc12 | 9.8 |
| CSC1=N/C(=C\c2ccc(C)cc2)C(=O)S1 | 10.3 |
| Cc1ccc(NC(=O)c2cc(C)n(-c3ccccc3)c2C)cc1 | 21 |
| Cc1ccc(-c2nnc(N3CCN(c4ccccn4)CC3)c3ccccc23)cc1 | 7.64 |
| COc1cccc2c1C(=O)C=C(C)C2=O | 5.32 |
| C=CCNC(=O)c1ccc2c3n(nc2c1)-c1ccc(Cl)cc1CO3 | 6.9 |
| Cc1ccc2c(c1)C(=O)C(=O)N2c1ccc(Cl)cc1 | 11.7 |
| O=C(NCc1ccc2c(c1)OCO2)c1c(O)nc2sccn2c1=O | 6.15 |
| CC1CCN(C(=O)c2ccc3c(c2)NC(=O)/C(=C/c2ccccc2)S3)CC1 | 13.6 |
| O=C(Nc1ccc(Oc2cccc3ccccc23)cc1)c1ccco1 | 8.33 |
| Cc1nc2ccccc2c(=O)n1/N=C/c1cc(Br)ccc1O | 6.9 |
| COc1cc(C(=O)N/N=C/c2coc3ccc(Cl)cc3c2=O)ccc1O | 4.34 |
